Data on 45 molecules can be found in patent publication US4387105A, “Methods of treating atherosclerosis with dialkylureas and dialkylthioureas” (priority 1982, dated 1983).

In the first assay the test system is cholesterol absorption.
Experiment: not given
Conditions: po, 0.03 % of diet, 336 h.
In the case of `CCCCN(CCCC)C(=O)Nc1cc(Cl)cc(Cl)c1` [1,1-Di-(n-butyl)-3-(3,5-dichlorophenyl)urea], the “Result (inhibition of cholesterol absorption: lowering of either serum cholesterol or liver cholesterol relative to control rats)” value was “Active”.

A further assay has as its target T1, fatty acyl CoA:cholesterol acyl transferase (ACAT) (Rattus norvegicus, UniProt O70536).
T1 construct: The supernatant, containing the microsomal fraction, served as the source of the cholesterol-esterifying enzyme; from tissue; host or cells: rat adrenals (1000 x g supernatant containing the microsomal fraction)
T1 sequence (O70536 1-545): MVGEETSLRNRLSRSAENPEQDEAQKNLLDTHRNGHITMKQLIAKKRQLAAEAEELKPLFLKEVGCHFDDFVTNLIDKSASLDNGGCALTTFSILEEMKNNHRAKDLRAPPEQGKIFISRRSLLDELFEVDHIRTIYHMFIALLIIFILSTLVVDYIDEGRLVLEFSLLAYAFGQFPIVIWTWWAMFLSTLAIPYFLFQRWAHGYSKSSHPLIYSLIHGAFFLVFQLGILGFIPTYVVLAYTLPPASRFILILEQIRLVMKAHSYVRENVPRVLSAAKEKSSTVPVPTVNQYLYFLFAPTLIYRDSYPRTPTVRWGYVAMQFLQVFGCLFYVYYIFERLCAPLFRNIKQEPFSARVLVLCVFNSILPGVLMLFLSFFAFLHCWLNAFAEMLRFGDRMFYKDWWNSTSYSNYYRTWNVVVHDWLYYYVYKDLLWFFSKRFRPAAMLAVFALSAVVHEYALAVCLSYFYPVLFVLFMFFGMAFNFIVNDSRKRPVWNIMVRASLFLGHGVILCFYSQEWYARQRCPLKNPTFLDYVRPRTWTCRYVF
The assay can be described thus: Inhibition of ACAT in rat adrenal microsomal supernatant (14C-oleoyl CoA, cholesteryl ester counted). Format: biochemical. More on the design: dose or concentration left out as unconfirmed. Conditions: vs control without compound. How it is done:
The compounds of the present invention were assayed for two types of biological activity related to their potential use as antiatherosclerotic agents. Compounds were tested in vitro for the ability to inhibit the enzyme fatty acyl CoA:cholesterol acyl transferase (ACAT) and in vivo for serum hypolipidemic activity as measured by their ability to inhibit lipid absorption in rats. The compounds were tested for their ability to inhibit ACAT according to the following procedure:
Rat adrenals were homogenized in 0.2 M monobasic potassium phosphate buffer, pH 7.4, and centrifuged at 1000 times gravity for 15 minutes at 5° C. The supernatant, containing the microsomal fraction, served as the source of the cholesterol-esterifying enzyme, fatty acyl CoA:cholesterol acyl transferase (ACAT). A mixture comprising 50 parts of adrenal supernatant, 10 parts of albumin (BSA) (50 mg./ml.), 3 parts of test compound (final concentration […].) and 500 parts of buffer was preincubated at 37° C. for 10 minutes. After treatment with 20 parts of oleoyl CoA(^14 C-[…]) the mixture was incubated at 37° C. for 10 minutes. A control mixture, omitting the test compound, was prepared and treated in the same manner. The lipids from the incubation mixture were extracted into an organic solvent and separated by thin-layer chromatography. The cholesteryl ester fraction was counted in a scintillation counter. This procedure is a modification of that described by Hashimoto, et al., Life Scie., 12 (Part II), 1-12 (1973).
Turning to “1,1-di-(n-butyl)-3-(2,3-dibenzophenyl)urea”, the % Inhibition (commonly the share of the control response that was lost under treatment) is 85.1%.

As to `Cc1ccc(NC(=O)N(CCCCC2CCCCC2)CCCCC2CCCCC2)c(C)c1` [1,1-Di-(4-cyclohexyl-n-butyl)-3-(2,4-dimethylphenyl)urea], the “% Inhibition” value came out at 86.3%.

Consider `Cc1ccc(NC(=O)N(C2CCCC2)C2CCCC2)c(C)c1` [1,1-Di-(cyclopentyl)-3-(2,4-dimethylphenyl)urea], for which the “% Inhibition” value is recorded as 90.4%.

Consider `CCCCN(CCCC)C(=O)Nc1cc(Cl)cc(Cl)c1Cl` [1,1-Di-(n-butyl)-3-(2,3,5-trichlorophenyl)urea], for which the “% Inhibition” value was 61.6%.

On to `CCCCN(CCCC)C(=O)Nc1cccc(Cl)c1Cl` [1,1-Di-(n-butyl)-3-(2,3-dichlorophenyl)urea], for which the “% Inhibition” value stood at 71.8%.

As to `CCCCN(CCCC)C(=O)Nc1cccc(C)c1C` [1,1-Di-(n-butyl)-3-(2,3-dimethylphenyl)urea], the “% Inhibition” value is reported as 87.6%.

As to `CCCCN(CCCC)C(=O)Nc1c(C)cc(C)cc1C` [1,1-Di-(n-butyl)-3-(2,4,6-trimethylphenyl)urea], the “% Inhibition” value is 73.4%.

`CCCCN(CCCC)C(=O)Nc1ccc(Cl)cc1Cl` [1,1-Di-(n-butyl)-3-(2,4-dichlorophenyl)urea]: the “% Inhibition” value was found to be 70.0%.

On to `CCCCN(CCCC)C(=O)Nc1cc(C)ccc1C` [1,1-Di-(n-butyl)-3-(2,5-dimethylphenyl)urea], for which the “% Inhibition” value is listed as 96.1%.

On to `CCCCN(CCCC)C(=O)Nc1c(C)cccc1C` [1,1-Di-(n-butyl)-3-(2,6-dimethylphenyl)urea], for which the “% Inhibition” value turned out to be 85.3%.

Turning to `CCCCN(CCCC)C(=O)Nc1ccc([N+](=O)[O-])cc1Cl` [1,1-Di-(n-butyl)-3-(2-chloro-4-nitrophenyl)urea], the “% Inhibition” value is recorded as 86.7%.

Take `CCCCN(CCCC)C(=O)Nc1ccc(C)c(C)c1` [1,1-Di-(n-butyl)-3-(3,4-dimethylphenyl)urea]: the “% Inhibition” value came out at 49.2%.

With `CCCCN(CCCC)C(=O)Nc1cc(Cl)cc(Cl)c1` [1,1-Di-(n-butyl)-3-(3,5-dichlorophenyl)urea], the “% Inhibition” value stood at 79.3%.

Turning to `CCCCN(CCCC)C(=O)Nc1ccc(F)c(Cl)c1` [1,1-Di-(n-butyl)-3-(3-chloro-4-fluorophenyl)urea], the “% Inhibition” value is reported as 90.9%.

On to `CCCCN(CCCC)C(=O)Nc1ccc(C)c(Cl)c1` [1,1-Di-(n-butyl)-3-(3-chloro-4-methylphenyl)urea], for which the “% Inhibition” value is 91.2%.

`CCCCN(CCCC)C(=O)Nc1cccc(SC)c1` [1,1-Di-(n-butyl)-3-(3-methylthiophenyl)urea]: the “% Inhibition” value turned out to be 84.7%.

Take `CCCCN(CCCC)C(=O)Nc1cccc(C(F)(F)F)c1` [1,1-Di-(n-butyl)-3-(3-trifluoromethylphenyl)urea]: the “% Inhibition” value is on record as 75.0%.

On to `CCCCN(CCCC)C(=O)Nc1ccc(Cl)c(C(F)(F)F)c1` [1,1-Di-(n-butyl)-3-(4-chloro-3-trifluoromethylphenyl)urea], for which the “% Inhibition” value is given as 87.3%.

Regarding `CCCCN(CCCC)C(=O)Nc1ccc(C(C)C)cc1` [1,1-Di-(n-butyl)-3-(4-isopropylphenyl)urea], the “% Inhibition” value came out at 76.4%.

For `CCCCCCCCCCCCN(CCCCCCCCCCCC)C(=O)Nc1ccc(C)cc1C` [1,1-Di-(n-dodecyl)-3-(2,4-dimethylphenyl)urea], the “% Inhibition” value is 26.3%.

Take `CCCCCCCN(CCCCCCC)C(=O)Nc1ccc(C)cc1C` [1,1-Di-(n-heptyl)-3-(2,4-dimethylphenyl)urea]: the “% Inhibition” value amounted to 91.1%.

As for `CCCCCCCCCN(CCCCCCCCC)C(=O)Nc1ccc(C)cc1C` [1,1-Di-(n-nonyl)-3-(2,4-dimethylphenyl)urea], the “% Inhibition” value is listed as 90.0%.

Turning to `CCCCCCCCCCCN(CCCCCCCCCCC)C(=O)Nc1ccc(C)cc1C` [1,1-Di-(n-undecyl)-3-(2,4-dimethylphenyl)urea], the “% Inhibition” value came to 48.9%.

Regarding `CCC(C)N(C(=O)Nc1ccc(C)cc1C)C(C)CC` (stereo not shown) [1,1-Di-(sec-butyl)-3-(2,4-dimethylphenyl)urea], the “% Inhibition” value worked out at 78.1%.

For `CCCCC(CC)CN(CC(CC)CCCC)C(=O)Nc1ccc(C)cc1C` (stereo not shown) [1,1-di-(2-ethylhexyl)-3-(2,4-dimethylphenyl)urea], the “% Inhibition” value came to 86.2%.

On to `Cc1ccc(C)c(NC(=O)N(CC(C)C)CC(C)C)c1` [1,1-di-(isobutyl)-3-(2,5-dimethylphenyl)urea], for which the “% Inhibition” value is reported as 74.3%.

On to `Cc1cccc(C)c1NC(=O)N(CC(C)C)CC(C)C` [1,1-di-(isobutyl)-3-(2,6-dimethylphenyl)urea], for which the “% Inhibition” value turned out to be 41.2%.

With `CC(C)CN(CC(C)C)C(=O)Nc1ccccc1Cl` [1,1-di-(isobutyl)-3-(2-chlorophenyl)urea], the “% Inhibition” value was 35.4%.

Take `Cc1ccc(NC(=O)N(CC(C)C)CC(C)C)cc1NC(=O)N(CC(C)C)CC(C)C` [1,1-di-(isobutyl)-3-[(3,3-diisobutyl)urea-4-methylphenyl]urea]: the “% Inhibition” value stood at 94.7%.

As to `CCCCN(CCCC)C(=O)Nc1ccccc1Cl` [1,1-di-(n-butyl)-3-(2-chlorophenyl)urea, 1,1-Di-(n-butyl)-3-(2-chlorophenyl)urea], the “% Inhibition” value was found to be 71.0%.

With `CCCCN(CCCC)C(=O)Nc1cccc(C(C)=O)c1` [1,1-di-(n-butyl)-3-(3-acetylphenyl)urea, 1,1-Di-(n-butyl)-3-(3-acetylphenyl)urea], the “% Inhibition” value was determined as 50.9%.

Regarding `CCCCN(CCCC)C(=O)Nc1cccc(Br)c1` [1,1-di-(n-butyl)-3-(3-bromophenyl)urea, 1,1-Di(n-butyl)-3-(3-bromophenyl)urea], the “% Inhibition” value came out at 86.0%.

Turning to `CCCCN(CCCC)C(=O)Nc1cccc(Cl)c1` [1,1-di-(n-butyl)-3-(3-chlorophenyl)urea, 1,1-Di-(n-butyl)-3-(3-chlorophenyl)urea], the “% Inhibition” value is 88.3%.

Regarding `CCCCN(CCCC)C(=O)Nc1cccc(OC)c1` [1,1-di-(n-butyl)-3-(3-methoxyphenyl)urea], the “% Inhibition” value was determined as 77.1%.

Consider `CCCCN(CCCC)C(=O)Nc1cccc(C)c1` [1,1-di-(n-butyl)-3-(3-methylphenyl)urea, 1,1-Di-(n-butyl)-3-(3-methylphenyl)urea], for which the “% Inhibition” value is on record as 78.4%.

Take `CCCCN(CCCC)C(=O)Nc1ccc(C(C)=O)cc1` [1,1-di-(n-butyl)-3-(4-acetylphenyl)urea, 1,1-Di-(n-butyl)-3-(4-acetylphenyl)urea]: the “% Inhibition” value worked out at 55.1%.

Consider `CCCCN(CCCC)C(=O)Nc1ccc(Cl)cc1C` [1,1-di-(n-butyl)-3-(4-chloro-2-methylphenyl)urea], for which the “% Inhibition” value is given as 88.0%.

For the molecule `CCCCN(CCCC)C(=O)Nc1ccc(OCC)cc1` [1,1-di-(n-butyl)-3-(4-ethoxyphenyl)urea, 1,1-Di-(n-butyl)-3-(4-ethoxyphenyl)urea], the “% Inhibition” value is listed as 78.6%.

As to `CCCCN(CCCC)C(=O)Nc1ccc(F)cc1` [1,1-di-(n-butyl)-3-(4-fluorophenyl)urea, 1,1-Di-(n-butyl)-3-(4-fluorophenyl)urea], the “% Inhibition” value is recorded as 55.9%.

With `CCCCN(CCCC)C(=O)Nc1ccc(I)cc1` [1,1-di-(n-butyl)-3-(4-iodophenyl)urea, 1,1-Di-(n-butyl)-3-(4-iodophenyl)urea], the “% Inhibition” value was found to be 83.1%.

With `CCCCN(CCCC)C(=O)Nc1ccc(OC)cc1` [1,1-di-(n-butyl)-3-(4-methoxyphenyl)urea, 1,1-Di-(n-butyl)-3-(4-methoxyphenyl)urea], the “% Inhibition” value amounted to 58.7%.

Take `CCCCN(CCCC)C(=O)Nc1ccc(C)cc1` [1,1-di-(n-butyl)-3-(4-methylphenyl)urea, 1,1-Di-(n-butyl)-3-(4-methylphenyl)urea]: the “% Inhibition” value is on record as 79.9%.

With `CCCCN(CCCC)C(=O)Nc1cc(Cl)ccc1C` [1,1-di-(n-butyl)-3-(5-chloro-2-methylphenyl)urea], the “% Inhibition” value was found to be 75.3%.

`CCCCN(CCCC)C(=O)Nc1ccc(C)c(NC(=O)N(CCCC)CCCC)c1` [1,1-di-(n-butyl)-3-[(3,3-dibutyl)urea-4-methylphenyl]urea]: the “% Inhibition” value was determined as 94.5%.

As for `Cc1ccc(NC(=O)N(C2CCCCC2)C2CCCCC2)c(C)c1` [1,1-dicyclohexyl-3-(2,4-dimethylphenyl)urea], the “% Inhibition” value is given as 94.3%.
